Test results taken from patent US20220378681A1, “SKIN CARE FORMULATION WITH LIPOPHILIC PEPTIDES” (DECIEM BEAUTY GROUP INC., priority 2019, published 2022).

Assay: Solubility of SYM3D in oils
Type: physicochemical
Protocol: Phase B may be prepared by adding MCT oil into a mixing vessel, and incorporating further ingredients such as one or more oil-soluble active ingredients. The ingredients are mixed at room temperature at a speed of 3000 RPM, with side sweep scraping at 15 RPM. Samples should be taken via the valve at the bottom of the kettle and tested by centrifugation, and the solution also visibly inspected to ensure complete incorporation of the second ingredient. Centrifugation of a sample of the mixture is an optional step to ensure complete dissolution of the second ingredient.
Amounts of SYM3D that would be effective in the invented formulation range from 0.1 to 1% by weight of the overall formulation. The specific amount used by the inventors in a sample formulation was 0.5%. SYM3D is selectively soluble in certain oils. […] It is therefore important to include an oil component such as MCT oil which is compatible with SYM3D if it is being used.

CCCc1cc(OC)c2c(c1)C(C)C(c1ccc(O)c(OC)c1)O2 (centres unmarked) [SYM3D, dihydrodehydrodiisoeugenol]
solubility in MCT oil (MCT oil, room temperature, 3000 RPM mixing): can be solubilized
solubility in squalane (squalane): not soluble
